Values after ≈ are worked out from the molar mass of the structure shown. Active and inactive are the calls of the source. The rule behind the calls is not given here.
Experiments:
[1] = system: Aspergillus flavus; assay: Antifungal activity against Aspergillus flavus after 72 to 96 hr by two-fold serial dilution method; format: functional
[2] = system: Aspergillus niger; assay: Antifungal activity against Aspergillus niger after 72 to 96 hr by two-fold serial dilution method; format: functional
[3] = system: Rhizopus; assay: Antifungal activity against Rhizopus sp. after 72 to 96 hr by two-fold serial dilution method; format: functional
[4] = system: Candida albicans; assay: Antifungal activity against Candida albicans after 72 to 96 hr by two-fold serial dilution method; format: functional
[5] = system: Cryptococcus neoformans; assay: Antifungal activity against Cryptococcus neoformans after 72 to 96 hr by two-fold serial dilution method; format: functional
[6] = system: Salmonella typhi; assay: Antibacterial activity against Salmonella enterica subsp. enterica serovar Typhi after 24 hr by twofold serial dilution method; format: functional
[7] = system: Pseudomonas aeruginosa; assay: Antibacterial activity against Pseudomonas aeruginosa after 24 hr by twofold serial dilution method; format: functional
[8] = system: Escherichia coli; assay: Antibacterial activity against Escherichia coli after 24 hr by two-fold serial dilution method; format: functional
[9] = system: Bacillus subtilis; assay: Antibacterial activity against Bacillus subtilis after 24 hr by two-fold serial dilution method; format: functional
[10] = system: Staphylococcus aureus; assay: Antibacterial activity against Staphylococcus aureus after 24 hr by two-fold serial dilution method; format: functional
[11] = system: Aspergillus flavus; assay: Antifungal activity against Aspergillus flavus assessed as growth inhibition at 200 ug/mL after 72 to 96 hr by two-fold serial dilution method; format: functional, organism-based
[12] = system: Aspergillus niger; assay: Antifungal activity against Aspergillus niger assessed as growth inhibition at 200 ug/mL after 72 to 96 hr by two-fold serial dilution method; format: functional, organism-based
[13] = system: Rhizopus; assay: Antifungal activity against Rhizopus sp. assessed as growth inhibition at 200 ug/mL after 72 to 96 hr by two-fold serial dilution method; format: functional, organism-based
[14] = system: Cryptococcus neoformans; assay: Antifungal activity against Cryptococcus neoformans assessed as growth inhibition at 200 ug/mL after 72 to 96 hr by two-fold serial dilution method; format: functional, organism-based
[15] = system: Escherichia coli; assay: Antibacterial activity against Escherichia coli assessed as growth inhibition at 200 ug/mL after 24 hr by two-fold serial dilution method; format: functional, organism-based
[16] = system: Bacillus subtilis; assay: Antibacterial activity against Bacillus subtilis assessed as growth inhibition at 200 ug/mL after 24 hr by two-fold serial dilution method; format: functional, organism-based

`CC1C(=O)CC(c2ccc(Cl)cc2)N(C(=O)CCl)C1c1ccc(Cl)cc1` (configuration not stated) was tested, and the MIC [1] was 25 µg/mL (≈ 60.9 µM), the MIC [2] was 50 µg/mL (≈ 122 µM) and the MIC [3] was 25 µg/mL (≈ 60.9 µM). The MIC [4] was 100 µg/mL (≈ 243 µM), the MIC [5] was 100 µg/mL (≈ 243 µM) and the MIC [6] was 100 µg/mL (≈ 243 µM). For the same compound, the MIC [7] was 12.5 µg/mL (≈ 30.4 µM), the MIC [8] was 25 µg/mL (≈ 60.9 µM) and the MIC [9] was 100 µg/mL (≈ 243 µM). It also gave an MIC [10] of 50 µg/mL (≈ 122 µM).
`O=C(O)c1cn(C2CC2)c2cc(N3CCNCC3)c(F)cc2c1=O` [CIPROFLOXACIN] showed an MIC [6] of 50 µg/mL (≈ 151 µM) and an MIC [8] of 25 µg/mL (≈ 75.4 µM).
For `CC(C)C1C(=O)CC(c2ccccc2)N(C(=O)CCl)C1c1ccccc1` (configuration not stated), the “growth inhibition (GI)” value [11] was “inactive”, the MIC [2] was 100 µg/mL (≈ 270 µM) and the MIC [3] was 100 µg/mL (≈ 270 µM). For the same compound, the MIC [4] was 50 µg/mL (≈ 135 µM), the MIC [5] was 200 µg/mL (≈ 541 µM) and the MIC [6] was 100 µg/mL (≈ 270 µM). The MIC [7] was 200 µg/mL (≈ 541 µM), the MIC [8] was 200 µg/mL (≈ 541 µM) and the MIC [9] was 200 µg/mL (≈ 541 µM). The MIC [10] was 100 µg/mL (≈ 270 µM).
`CC1C(=O)CC(c2ccccc2)N(C(=O)CCl)C1c1ccccc1` (configuration not stated) showed an MIC [1] of 200 µg/mL (≈ 585 µM), an MIC [2] of 200 µg/mL (≈ 585 µM) and an MIC [3] of 100 µg/mL (≈ 293 µM). For the same compound, the MIC [4] was 200 µg/mL (≈ 585 µM), the MIC [5] was 100 µg/mL (≈ 293 µM) and the MIC [6] was 50 µg/mL (≈ 146 µM). For the same compound, the MIC [7] was 200 µg/mL (≈ 585 µM), the MIC [8] was 100 µg/mL (≈ 293 µM) and the MIC [9] was 100 µg/mL (≈ 293 µM). The MIC [10] was 100 µg/mL (≈ 293 µM).
In the case of `Cc1ccc(C2C(C)C(=O)C(C)C(c3ccc(C)cc3)N2C(=O)CCl)cc1` (configuration not stated), the MIC [1] is reported as 50 µg/mL (≈ 130 µM), the MIC [2] is reported as 100 µg/mL (≈ 260 µM) and the MIC [3] is reported as 25 µg/mL (≈ 65.1 µM). The MIC [4] was 50 µg/mL (≈ 130 µM), the MIC [5] was 50 µg/mL (≈ 130 µM) and the MIC [6] was 100 µg/mL (≈ 260 µM). The MIC [7] was 200 µg/mL (≈ 521 µM), the MIC [8] was 50 µg/mL (≈ 130 µM) and the MIC [9] was 100 µg/mL (≈ 260 µM). The MIC [10] was 200 µg/mL (≈ 521 µM).
With `CN[C@@H]1[C@H](O[C@H]2[C@H](O[C@H]3[C@H](O)[C@@H](O)[C@H](N=C(N)N)[C@@H](O)[C@@H]3N=C(N)N)O[C@@H](C)[C@]2(O)C=O)O[C@@H](CO)[C@H](O)[C@H]1O` [STREPTOMYCIN] the MIC [6] was 25 µg/mL (≈ 43 µM), the MIC [7] was 50 µg/mL (≈ 86 µM) and the MIC [8] was 50 µg/mL (≈ 86 µM). For the same compound, the MIC [9] was 12.5 µg/mL (≈ 21.5 µM) and the MIC [10] was 25 µg/mL (≈ 43 µM).
For `Cc1ccc(C2CC(=O)C(C)C(c3ccc(C)cc3)N2C(=O)CCl)cc1` (configuration not stated), the MIC [1] was 12.5 µg/mL (≈ 33.8 µM), the MIC [2] was 12.5 µg/mL (≈ 33.8 µM) and the MIC [3] was 50 µg/mL (≈ 135 µM). It also gave an MIC [4] of 50 µg/mL (≈ 135 µM), an MIC [5] of 25 µg/mL (≈ 67.6 µM) and an MIC [6] of 50 µg/mL (≈ 135 µM). For the same compound, the MIC [7] was 100 µg/mL (≈ 270 µM), the MIC [8] was 25 µg/mL (≈ 67.6 µM) and the MIC [9] was 12.5 µg/mL (≈ 33.8 µM). It also gave an MIC [10] of 100 µg/mL (≈ 270 µM).
In the case of `O=C1CC(c2ccccc2)N(C(=O)CCl)C(c2ccccc2)C1` (configuration not stated), the MIC [1] is reported as 100 µg/mL (≈ 305 µM), the “growth inhibition (GI)” value [12] is reported as “inactive” and the “growth inhibition (GI)” value [13] is reported as “inactive”. For the same compound, the MIC [4] was 200 µg/mL (≈ 610 µM), the “growth inhibition (GI)” value [14] was “inactive” and the “growth inhibition (GI)” value [15] was “inactive”. For the same compound, the “growth inhibition (GI)” value [16] was “inactive”, the MIC [6] was 50 µg/mL (≈ 153 µM) and the MIC [7] was 100 µg/mL (≈ 305 µM). For the same compound, the MIC [10] was 200 µg/mL (≈ 610 µM).
In the case of `CCC1C(=O)CC(c2ccc(Cl)cc2)N(C(=O)CCl)C1c1ccc(Cl)cc1` (configuration not stated), the MIC [1] is reported as 25 µg/mL (≈ 58.9 µM), the MIC [2] is reported as 12.5 µg/mL (≈ 29.4 µM) and the MIC [3] is reported as 50 µg/mL (≈ 118 µM). For the same compound, the MIC [4] was 100 µg/mL (≈ 235 µM), the MIC [5] was 50 µg/mL (≈ 118 µM) and the MIC [6] was 12.5 µg/mL (≈ 29.4 µM). It also gave an MIC [7] of 50 µg/mL (≈ 118 µM), an MIC [8] of 50 µg/mL (≈ 118 µM) and an MIC [9] of 25 µg/mL (≈ 58.9 µM). It also gave an MIC [10] of 25 µg/mL (≈ 58.9 µM).
Compound `COc1ccc(C2CC(=O)C(C)C(c3ccc(OC)cc3)N2C(=O)CCl)cc1` (configuration not stated) has an MIC [1] of 50 µg/mL (≈ 124 µM), an MIC [2] of 50 µg/mL (≈ 124 µM) and an MIC [3] of 25 µg/mL (≈ 62.2 µM). The MIC [4] was 100 µg/mL (≈ 249 µM), the MIC [5] was 100 µg/mL (≈ 249 µM) and the MIC [6] was 100 µg/mL (≈ 249 µM). The MIC [7] was 50 µg/mL (≈ 124 µM), the MIC [8] was 100 µg/mL (≈ 249 µM) and the MIC [9] was 200 µg/mL (≈ 498 µM). The MIC [10] was 25 µg/mL (≈ 62.2 µM).
`C[C@@H]1[C@H](O)[C@@H](C)/C=C/C=C/C=C/C=C/C=C/C=C/C=C/[C@H](O[C@@H]2O[C@H](C)[C@@H](O)[C@H](N)[C@@H]2O)C[C@@H]2O[C@](O)(C[C@@H](O)C[C@@H](O)[C@H](O)CC[C@@H](O)C[C@@H](O)CC(=O)O[C@H]1C)C[C@H](O)[C@H]2C(=O)O` [AMPHOTERICIN B] showed an MIC [1] of 50 µg/mL (≈ 54.1 µM), an MIC [2] of 50 µg/mL (≈ 54.1 µM) and an MIC [3] of 25 µg/mL (≈ 27.1 µM). The MIC [4] was 25 µg/mL (≈ 27.1 µM) and the MIC [5] was 25 µg/mL (≈ 27.1 µM).
`COc1ccc(C2C(C)C(=O)C(C)C(c3ccc(OC)cc3)N2C(=O)CCl)cc1` (configuration not stated) was tested, and the MIC [1] was 50 µg/mL (≈ 120 µM), the MIC [2] was 25 µg/mL (≈ 60.1 µM) and the MIC [3] was 100 µg/mL (≈ 240 µM). It also gave an MIC [4] of 100 µg/mL (≈ 240 µM), an MIC [5] of 100 µg/mL (≈ 240 µM) and an MIC [6] of 25 µg/mL (≈ 60.1 µM). It also gave an MIC [7] of 100 µg/mL (≈ 240 µM), an MIC [8] of 100 µg/mL (≈ 240 µM) and an MIC [9] of 50 µg/mL (≈ 120 µM). For the same compound, the MIC [10] was 50 µg/mL (≈ 120 µM).
`CC1C(=O)C(C)C(c2ccc(Cl)cc2)N(C(=O)CCl)C1c1ccc(Cl)cc1` (configuration not stated) showed an MIC [1] of 100 µg/mL (≈ 235 µM), an MIC [2] of 50 µg/mL (≈ 118 µM) and an MIC [3] of 100 µg/mL (≈ 235 µM). The MIC [4] was 200 µg/mL (≈ 471 µM), the MIC [5] was 50 µg/mL (≈ 118 µM) and the MIC [6] was 25 µg/mL (≈ 58.9 µM). For the same compound, the MIC [7] was 100 µg/mL (≈ 235 µM), the MIC [8] was 50 µg/mL (≈ 118 µM) and the MIC [9] was 100 µg/mL (≈ 235 µM). The MIC [10] was 12.5 µg/mL (≈ 29.4 µM).

From ChEMBL document CHEMBL3046827, “Synthesis and antimicrobial activities of N-chloroacetyl-2,6-diarylpiperidin-4-ones” (2007)
